Assay results reported in PubChem BioAssay (NCI).
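GI50 is the concentration that inhibits growth by half. TGI: concentration producing complete growth inhibition.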

Columns and labels:
Experiment in all cases: NCI-60 cell line screen, 384-well format
NCI/ADR-RES ovarian = tested on: NCI/ADR-RES ovarian
OVCAR-4 ovarian = tested on: OVCAR-4 ovarian
NCI-H23 lung = tested on: NCI-H23 lung
SF-539 CNS = tested on: SF-539 CNS
NCI-H460 NSCLC = tested on: NCI-H460 NSCLC
HCT-15 colon = tested on: HCT-15 colon
TK-10 renal = tested on: TK-10 renal
U251 glioblastoma = tested on: U251 glioblastoma
786-0 renal = tested on: 786-0 renal
PC-3 prostate = tested on: PC-3 prostate
HCT-116 colon = tested on: HCT-116 colon
SN12C renal = tested on: SN12C renal
IGROV1 ovarian = tested on: IGROV1 ovarian
KM12 colon = tested on: KM12 colon
COLO 205 colon = tested on: COLO 205 colon
OVCAR-3 ovarian = tested on: OVCAR-3 ovarian
RXF 393 renal = tested on: RXF 393 renal
HCC-2998 colon = tested on: HCC-2998 colon
SK-MEL-28 melanoma = tested on: SK-MEL-28 melanoma
HOP-92 NSCLC = tested on: HOP-92 NSCLC
SNB-75 CNS = tested on: SNB-75 CNS
UO-31 renal = tested on: UO-31 renal
LOX IMVI melanoma = tested on: LOX IMVI melanoma
HOP-62 NSCLC = tested on: HOP-62 NSCLC
M14 melanoma = tested on: M14 melanoma
NCI-H322M lung = tested on: NCI-H322M lung
A549 NSCLC = tested on: A549 NSCLC
A498 renal = tested on: A498 renal
MDA-MB-231 breast = tested on: MDA-MB-231 breast
SF-295 CNS = tested on: SF-295 CNS
CCRF-CEM leukemia = tested on: CCRF-CEM leukemia
MOLT-4 leukemia = tested on: MOLT-4 leukemia
MDA-MB-468 breast = tested on: MDA-MB-468 breast
SNB-19 CNS = tested on: SNB-19 CNS
CAKI-1 renal = tested on: CAKI-1 renal
OVCAR-5 ovarian = tested on: OVCAR-5 ovarian
MCF7 breast = tested on: MCF7 breast
HT29 colon = tested on: HT29 colon
UACC-257 melanoma = tested on: UACC-257 melanoma
MALME-3M melanoma = tested on: MALME-3M melanoma
BT-549 breast = tested on: BT-549 breast
SR leukemia = tested on: SR leukemia
SF-268 CNS = tested on: SF-268 CNS
UACC-62 melanoma = tested on: UACC-62 melanoma
RPMI-8226 leukemia = tested on: RPMI-8226 leukemia
SW-620 colon = tested on: SW-620 colon
HS 578T breast = tested on: HS 578T breast
DU-145 prostate = tested on: DU-145 prostate
OVCAR-8 ovarian = tested on: OVCAR-8 ovarian
ACHN renal = tested on: ACHN renal
T-47D breast = tested on: T-47D breast
HL-60(TB) leukemia = tested on: HL-60(TB) leukemia
NCI-H522 lung = tested on: NCI-H522 lung
SK-MEL-5 melanoma = tested on: SK-MEL-5 melanoma
MDA-MB-435 melanoma = tested on: MDA-MB-435 melanoma
SK-OV-3 ovarian = tested on: SK-OV-3 ovarian
EKVX NSCLC = tested on: EKVX NSCLC
NCI-H226 lung = tested on: NCI-H226 lung

CN1CCN(c2ccc(C(=O)Nc3n[nH]c4ccc(Cc5cc(F)cc(F)c5)cc34)c(NC3CCOCC3)c2)CC1
GI50 (NCI/ADR-RES ovarian): 1550 nM
TGI (NCI/ADR-RES ovarian): 2900 nM
GI50 (OVCAR-4 ovarian): 1020 nM
TGI (OVCAR-4 ovarian): 2230 nM
GI50 (NCI-H23 lung): 1230 nM
TGI (NCI-H23 lung): 2480 nM
GI50 (SF-539 CNS): 1680 nM
TGI (SF-539 CNS): 3060 nM
GI50 (NCI-H460 NSCLC): 1570 nM
TGI (NCI-H460 NSCLC): 2950 nM
GI50 (HCT-15 colon): 1160 nM
TGI (HCT-15 colon): 2410 nM
GI50 (TK-10 renal): 1570 nM
TGI (TK-10 renal): 2930 nM
GI50 (U251 glioblastoma): 1680 nM
TGI (U251 glioblastoma): 3060 nM
GI50 (786-0 renal): 1510 nM
TGI (786-0 renal): 2850 nM
GI50 (PC-3 prostate): 1230 nM
TGI (PC-3 prostate): 2480 nM
GI50 (HCT-116 colon): 1500 nM
TGI (HCT-116 colon): 2850 nM
GI50 (SN12C renal): 1210 nM
TGI (SN12C renal): 2480 nM
GI50 (IGROV1 ovarian): 1010 nM
TGI (IGROV1 ovarian): 2210 nM
TGI (KM12 colon): 1370 nM
GI50 (COLO 205 colon): 1720 nM
TGI (COLO 205 colon): 3120 nM
GI50 (OVCAR-3 ovarian): 1050 nM
TGI (OVCAR-3 ovarian): 2290 nM
GI50 (RXF 393 renal): 825 nM
TGI (RXF 393 renal): 2200 nM
GI50 (HCC-2998 colon): 1030 nM
TGI (HCC-2998 colon): 2220 nM
GI50 (SK-MEL-28 melanoma): 1670 nM
TGI (SK-MEL-28 melanoma): 3040 nM
GI50 (HOP-92 NSCLC): 1140 nM
TGI (HOP-92 NSCLC): 2360 nM
GI50 (SNB-75 CNS): 1370 nM
TGI (SNB-75 CNS): 2670 nM
GI50 (UO-31 renal): 1590 nM
TGI (UO-31 renal): 2950 nM
GI50 (LOX IMVI melanoma): 1530 nM
TGI (LOX IMVI melanoma): 2870 nM
GI50 (HOP-62 NSCLC): 1430 nM
TGI (HOP-62 NSCLC): 2750 nM
GI50 (M14 melanoma): 1690 nM
TGI (M14 melanoma): 3060 nM
GI50 (NCI-H322M lung): 1470 nM
TGI (NCI-H322M lung): 2790 nM
GI50 (A549 NSCLC): 1410 nM
TGI (A549 NSCLC): 2730 nM
GI50 (A498 renal): 1710 nM
TGI (A498 renal): 3090 nM
GI50 (MDA-MB-231 breast): 1230 nM
TGI (MDA-MB-231 breast): 2480 nM
GI50 (SF-295 CNS): 1680 nM
TGI (SF-295 CNS): 3050 nM
GI50 (CCRF-CEM leukemia): 1870 nM
TGI (CCRF-CEM leukemia): 3300 nM
GI50 (MOLT-4 leukemia): 1360 nM
TGI (MOLT-4 leukemia): 2650 nM
GI50 (MDA-MB-468 breast): 1120 nM
TGI (MDA-MB-468 breast): 2330 nM
GI50 (SNB-19 CNS): 1700 nM
TGI (SNB-19 CNS): 3110 nM
GI50 (CAKI-1 renal): 1630 nM
TGI (CAKI-1 renal): 3000 nM
GI50 (OVCAR-5 ovarian): 1480 nM
TGI (OVCAR-5 ovarian): 2840 nM
GI50 (MCF7 breast): 1140 nM
TGI (MCF7 breast): 2370 nM
GI50 (HT29 colon): 1300 nM
TGI (HT29 colon): 2610 nM
GI50 (UACC-257 melanoma): 1550 nM
TGI (UACC-257 melanoma): 2900 nM
GI50 (MALME-3M melanoma): 1270 nM
TGI (MALME-3M melanoma): 2530 nM
GI50 (BT-549 breast): 1730 nM
TGI (BT-549 breast): 3120 nM
GI50 (SR leukemia): 24.3 nM
TGI (SR leukemia): 55.4 nM
GI50 (SF-268 CNS): 1600 nM
TGI (SF-268 CNS): 2970 nM
GI50 (UACC-62 melanoma): 1600 nM
TGI (UACC-62 melanoma): 2960 nM
GI50 (RPMI-8226 leukemia): 1350 nM
TGI (RPMI-8226 leukemia): 2650 nM
GI50 (SW-620 colon): 1490 nM
TGI (SW-620 colon): 2840 nM
GI50 (HS 578T breast): 1530 nM
TGI (HS 578T breast): 2860 nM
GI50 (DU-145 prostate): 1550 nM
TGI (DU-145 prostate): 2890 nM
GI50 (OVCAR-8 ovarian): 1660 nM
TGI (OVCAR-8 ovarian): 3040 nM
GI50 (ACHN renal): 1540 nM
TGI (ACHN renal): 2880 nM
GI50 (T-47D breast): 1350 nM
TGI (T-47D breast): 2650 nM
GI50 (HL-60(TB) leukemia): 1830 nM
TGI (HL-60(TB) leukemia): 3240 nM
GI50 (NCI-H522 lung): 1400 nM
TGI (NCI-H522 lung): 2710 nM
GI50 (SK-MEL-5 melanoma): 1590 nM
TGI (SK-MEL-5 melanoma): 2940 nM
GI50 (MDA-MB-435 melanoma): 1690 nM
TGI (MDA-MB-435 melanoma): 3070 nM
GI50 (SK-OV-3 ovarian): 1430 nM
TGI (SK-OV-3 ovarian): 2760 nM
GI50 (EKVX NSCLC): 1200 nM
TGI (EKVX NSCLC): 2460 nM
GI50 (NCI-H226 lung): 727 nM
TGI (NCI-H226 lung): 2070 nM
